Data taken from patent US10307425B2, “Compositions and methods for treating toxoplasmosis, cryptosporidiosis and other apicomplexan protozoan related diseases” (UNIVERSITY OF WASHINGTON, priority 2015, dated 2019).
pIC50: −log10 of the molar value.

What follows are compounds tested against TgCDPK1 (Toxoplasma gondii, UniProt Q9BJF5) (assay: biochemical).
Chain of TgCDPK1 (Q9BJF5 1-507): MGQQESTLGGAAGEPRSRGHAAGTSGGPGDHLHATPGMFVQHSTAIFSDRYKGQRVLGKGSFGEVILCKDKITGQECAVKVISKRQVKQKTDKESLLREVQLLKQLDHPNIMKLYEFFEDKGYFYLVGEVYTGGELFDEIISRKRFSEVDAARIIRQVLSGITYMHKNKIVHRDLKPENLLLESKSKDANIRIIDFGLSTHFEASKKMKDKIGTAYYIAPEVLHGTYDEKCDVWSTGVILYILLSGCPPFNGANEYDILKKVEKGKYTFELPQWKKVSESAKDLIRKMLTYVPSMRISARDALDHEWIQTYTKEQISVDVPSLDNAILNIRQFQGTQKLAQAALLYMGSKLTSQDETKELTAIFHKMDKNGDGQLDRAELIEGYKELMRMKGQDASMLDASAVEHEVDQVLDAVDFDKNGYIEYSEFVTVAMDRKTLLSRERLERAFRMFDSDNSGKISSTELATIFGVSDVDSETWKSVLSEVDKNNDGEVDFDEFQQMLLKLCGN

Row | SMILES | pIC50
1 | CN1CCC(C#N)(Cn2nc(-c3ccc4cc(OC5CC5)ccc4c3)c3c(N)ncnc32)CC1 [Example 83, 4-((4-amino-3-(6-cyclopropoxynaphthalen-2-yl)-1H-pyrazolo[3,4-d]pyrimidin-1-yl)methyl)-1-methylpiperidine-4-carbonitrile] | 8.46
2 | Nc1ncnc2c1c(-c1ccc3cc(OC4CC4)ccc3c1)nn2CC1(CO)COC1 [Example 65, (3-((4-amino-3-(6-cyclopropoxynaphthalen-2-yl)-1H-pyrazolo[3,4-d]pyrimidin-1-yl)methyl)oxetan-3-yl)methanol] | 8.54
3 | COC(=O)C(C)(C)Cn1nc(-c2ccc3nc(OC4CC4)ccc3c2)c2c(N)ncnc21 [Example 69, methyl 3-(4-amino-3-(2-cyclopropoxyquinolin-6-yl)-1H-pyrazolo[3,4-d]pyrimidin-1-yl)-2,2-dimethylpropanoate] | 7.36
4 | CN1CCC(Cn2nc(-c3ccc4cc(OCC#N)ccc4c3)c3c(N)ncnc32)CC1 [Example 73, 2-((6-(4-amino-1-((1-methylpiperidin-4-yl)methyl)-1H-pyrazolo[3,4-d]pyrimidin-3-yl)naphthalen-2-yl)oxy)acetonitrile] | 7.13
5 | Nc1ncnc2c1c(-c1ccc3cc(OCC4CC4)ccc3c1)nn2CC1CCOCC1 [Example 29, 3-(6-(cyclopropylmethoxy)naphthalen-2-yl)-1-((tetrahydro-2H-pyran-4-yl)methyl)-1H-pyrazolo[3,4-d]pyrimidin-4-amine] | 8.32
6 | CCOc1ccc2cc(-c3nn(CC4(O)CCNCC4)c4ncnc(N)c34)ccc2n1 [Example 84, 4-((4-amino-3-(2-ethoxyquinolin-6-yl)-1H-pyrazolo[3,4-d]pyrimidin-1-yl)methyl)piperidin-4-ol] | 8.40
7 | CC(C)(F)Cn1nc(-c2ccc3cc(OC4CC4)ccc3c2)c2c(N)ncnc21 [Example 77, 3-(6-cyclopropoxynaphthalen-2-yl)-1-(2-fluoro-2-methylpropyl)-1H-pyrazolo[3,4-d]pyrimidin-4-amine] | 8.19
8 | CCOc1ccc2cc(-c3nc(CC4CCN(C)CC4)n4ccnc(N)c34)ccc2c1 [Example 115, 1-(6-ethoxynaphthalen-2-yl)-3-((1-methylpiperidin-4-yl)methyl)imidazo[1,5-a]pyrazin-8-amine] | 7.73
9 | CC(C)(CO)Cn1nc(-c2ccc3nc(OCC(F)(F)F)ccc3c2)c2c(N)ncnc21 [Example 2, 3-(4-Amino-3-(2-(2,2,2-trifluoroethoxy)quinolin-6-yl)-1H-pyrazolo[3,4-d]pyrimidin-1-yl)-2,2-dimethylpropan-1-ol] | 7.76
10 | CCOc1ccc2cc(-c3nn(CC4(O)CNC4)c4ncnc(N)c34)ccc2c1 [Example 96, 3-((4-amino-3-(6-ethoxynaphthalen-2-yl)-1H-pyrazolo[3,4-d]pyrimidin-1-yl)methyl)azetidin-3-ol] | 8.11
11 | Nc1ncnc2c1c(-c1ccc3nc(OCC(F)(F)F)ccc3c1)nn2CC1CCNCC1 [Example 44, 1-(piperidin-4-ylmethyl)-3-(2-(2,2,2-trifluoroethoxy)quinolin-6-yl)-1H-pyrazolo[3,4-d]pyrimidin-4-amine] | 8.85
12 | Nc1ncnc2c1c(-c1ccc3cc(OC4CC4)ccc3c1)nn2CC1(O)CCC1 [Example 59, 1-((4-amino-3-(6-cyclopropoxynaphthalen-2-yl)-1H-pyrazolo[3,4-d]pyrimidin-1-yl)methyl)cyclobutanol] | 8.07
13 | CC(C)(O)Cn1nc(-c2ccc3nc(OCC(F)(F)F)ccc3c2)c2c(N)ncnc21 [Example 46, 1-(4-amino-3-(2-(2,2,2-trifluoroethoxy)quinolin-6-yl)-1H-pyrazolo[3,4-d]pyrimidin-1-yl)-2-methylpropan-2-ol] | 7.74
14 | Nc1ncnc2c1c(-c1ccc3nc(OC4CC4)ccc3c1)nn2CC(O)(C(F)(F)F)C(F)(F)F [Example 53, 2-((4-amino-3-(2-cyclopropoxyquinolin-6-yl)-1H-pyrazolo[3,4-d]pyrimidin-1-yl)methyl)-1,1,1,3,3,3-hexafluoropropan-2-ol] | 7.33
15 | COC(=O)C(C)(C)Cn1nc(-c2ccc3cc(OC4CC4)ccc3c2)c2c(N)ncnc21 [Example 68, methyl 3-(4-amino-3-(6-cyclopropoxynaphthalen-2-yl)-1H-pyrazolo[3,4-d]pyrimidin-1-yl)-2,2-dimethylpropanoate] | 8.01
16 | CC(C)n1nc(-c2ccc3cc(OCC(C)(C)O)ccc3c2)c2c(N)ncnc21 [Example 117, 1-((6-(4-amino-1-isopropyl-1H-pyrazolo[3,4-d]pyrimidin-3-yl)naphthalen-2-yl)oxy)-2-methylpropan-2-ol] | 8.52
17 | CCOc1ccc2cc(-c3nn(CC4(C#N)CCN(C)CC4)c4ncnc(N)c34)ccc2n1 [Example 87, 4-((4-amino-3-(2-ethoxyquinolin-6-yl)-1H-pyrazolo[3,4-d]pyrimidin-1-yl)methyl)-1-methylpiperidine-4-carbonitrile] | 6.99
18 | CCOc1ccc2cc(-c3nn(CC4(C)COC4)c4ncnc(N)c34)ccc2c1 [Example 49, 3-(6-ethoxynaphthalen-2-yl)-1-((3-methyloxetan-3-yl)methyl)-1H-pyrazolo[3,4-d]pyrimidin-4-amine] | 8.54
19 | CN1CCC(O)(Cn2nc(-c3ccc4nc(OC5CC5)ccc4c3)c3c(N)ncnc32)CC1 [Example 85, 4-((4-amino-3-(2-cyclopropoxyquinolin-6-yl)-1H-pyrazolo[3,4-d]pyrimidin-1-yl)methyl)-1-methylpiperidin-4-ol] | 7.68
20 | Nc1ncnc2c1c(-c1ccc3cc(OC4CC4)ccc3c1)nn2CC1(O)CCCC1 [Example 61, 1-((4-amino-3-(6-cyclopropoxynaphthalen-2-yl)-1H-pyrazolo[3,4-d]pyrimidin-1-yl)methyl)cyclopentanol] | 7.89
21 | Nc1ncnc2c1c(-c1ccc3nc(OC4CC4)ccc3c1)nn2CC1CNC1 [Example 40, 1-(azetidin-3-ylmethyl)-3-(2-cyclopropoxyquinolin-6-yl)-1H-pyrazolo[3,4-d]pyrimidin-4-amine] | 8.64
22 | CC(C)Cn1nc(-c2ccc3cc(OC4CC4)ccc3c2)c2c(N)ncnc21 [Example 9, 3-(6-cyclopropoxynaphthalen-2-yl)-1-isobutyl-1H-pyrazolo[3,4-d]pyrimidin-4-amine] | 8.22
23 | CN1CCC(C#N)(Cn2nc(-c3ccc4cc(OC(F)F)ccc4c3)c3c(N)ncnc32)CC1 [Example 102, 4-((4-amino-3-(6-(difluoromethoxy)naphthalen-2-yl)-1H-pyrazolo[3,4-d]pyrimidin-1-yl)methyl)-1-methylpiperidine-4-carbonitrile] | 7.74
24 | CC(C)(O)Cn1cc(-c2ccc3cc(OC4CC4)ccc3c2)c2c(N)ncnc21 [Example 58, 1-(4-amino-5-(6-cyclopropoxynaphthalen-2-yl)-7H-pyrrolo[2,3-d]pyrimidin-7-yl)-2-methylpropan-2-ol] | 8.04
25 | CC(C)(O)Cn1cc(-c2ccc3nc(OC4CC4)ccc3c2)c2c(N)ncnc21 [Example 55, 1-(4-amino-5-(2-cyclopropoxyquinolin-6-yl)-7H-pyrrolo[2,3-d]pyrimidin-7-yl)-2-methylpropan-2-ol] | 8.49
26 | CC(C)(O)Cn1nc(-c2ccc3cc(OCC#N)ccc3c2)c2c(N)ncnc21 [Example 88, 2-(6-(4-amino-1-(2-hydroxy-2-methylpropyl)-1H-pyrazolo[3,4-d]pyrimidin-3-yl)naphthalen-2-yloxy)acetonitrile] | 6.95
